Source: patent US9394250B2, “Substituted pyrrolidines as factor xia inhibitors for the treatment thromboembolic diseases” (ONO PHARMACEUTICAL CO., LTD., priority 2012, dated 2016)
Where a name gives a salt, the structure may show the parent alone.

Experiments:
Type in all cases: biochemical
[1] = molecular target: Human Factor XIa (Homo sapiens (Human), UniProt P03951); assay: Factor XIa enzyme activity, chromogenic substrate S-2366; settings: purified human Factor XIa 0.1 U/mL, 300 μM S-2366, pH7.4; read-out: In vitro FXIa inhibitory activity IC50
Sequence of Human Factor XIa (P03951 388-625): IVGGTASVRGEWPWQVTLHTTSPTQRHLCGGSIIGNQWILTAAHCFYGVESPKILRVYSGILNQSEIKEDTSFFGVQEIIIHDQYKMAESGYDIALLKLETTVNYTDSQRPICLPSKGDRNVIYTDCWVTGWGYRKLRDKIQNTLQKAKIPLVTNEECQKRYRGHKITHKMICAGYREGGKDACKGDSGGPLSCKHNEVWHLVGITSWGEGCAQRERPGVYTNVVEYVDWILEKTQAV
Sequence of Human Factor XIa (P03951 19-387 partner): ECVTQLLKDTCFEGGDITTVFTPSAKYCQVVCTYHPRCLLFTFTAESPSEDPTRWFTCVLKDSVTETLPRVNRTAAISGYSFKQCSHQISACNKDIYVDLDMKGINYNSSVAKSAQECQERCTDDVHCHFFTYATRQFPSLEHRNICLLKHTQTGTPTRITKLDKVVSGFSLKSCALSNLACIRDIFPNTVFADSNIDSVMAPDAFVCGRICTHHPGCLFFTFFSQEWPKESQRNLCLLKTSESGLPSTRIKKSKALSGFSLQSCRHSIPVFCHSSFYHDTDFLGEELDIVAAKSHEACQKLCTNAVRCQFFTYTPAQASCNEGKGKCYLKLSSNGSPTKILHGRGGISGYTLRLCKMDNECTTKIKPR
Experimental: (§1) Inhibitory activities of compounds of the present invention against factor XIa, Xa, XIIa, IXa, VIIa, plasma kallikrein or thrombin were evaluated using appropriate purified proteases and synthetic substrates. The rate of hydrolysis of the chromogenic substrate by the relevant protease was continuously measured at 405 nm. Inhibitory activity against each enzyme was calculated as % inhibition using the equation described below. % Inhibition=[[(rate without compound)−(rate with compound)]/(rate without compound)]×100%. Each half maximal inhibitory concentration (IC50) value was determined by plotting the concentration of compound of the invention against the % inhibition. (1-1) Factor XIa Enzyme Activity
Human Factor XIa (Haematologic Technologies Inc.) activity was measured at an enzyme concentration of 0.1 U/mL in 150 mM NaCl, 5 mM KCl, 1 mg/mL PEG6000, 50 mM HEPES-NaOH (pH7.4) with 300 μM S-2366 (pyroGlu-Pro-Arg-pNA, Chromogenix).

[2] = molecular target: human thrombin (Homo sapiens (Human), UniProt P00734); assay: Thrombin enzyme activity, chromogenic substrate S-2366; settings: human thrombin 0.12 U/mL, 300 μM S-2366, pH7.4; read-out: In vitro Thrombin inhibitory activity IC50
Experimental: as §1
(§2) Human Factor Xa (American Diagnostica Inc.) and human thrombin (Sigma) activities were measured at the enzyme concentrations of 0.18 U/mL and 0.12 U/mL, respectively in the same buffer containing 150 mM NaCl, 2 mg/mL PEG6000, 50 mM Tris-HCl (pH7.4), except that the reactions were started with 300 μM S-2222 ([…], Chromogenix) and 300 μM S-2366, respectively.

[3] = molecular target: Human Factor Xa (Homo sapiens (Human), UniProt P00742); assay: Factor Xa enzyme activity, chromogenic substrate S-2222; settings: human Factor Xa 0.18 U/mL, 300 μM S-2222, pH7.4; read-out: In vitro FXa inhibitory activity IC50
Sequence of Human Factor Xa (P00742 235-488): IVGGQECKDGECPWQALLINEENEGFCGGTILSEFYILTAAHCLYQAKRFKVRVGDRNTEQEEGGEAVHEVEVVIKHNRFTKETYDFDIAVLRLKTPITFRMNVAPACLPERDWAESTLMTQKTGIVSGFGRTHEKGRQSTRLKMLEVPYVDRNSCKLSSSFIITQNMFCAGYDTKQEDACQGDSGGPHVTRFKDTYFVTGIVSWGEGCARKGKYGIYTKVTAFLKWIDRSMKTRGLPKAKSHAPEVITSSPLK
Sequence of Human Factor Xa (P00742 41-179 partner): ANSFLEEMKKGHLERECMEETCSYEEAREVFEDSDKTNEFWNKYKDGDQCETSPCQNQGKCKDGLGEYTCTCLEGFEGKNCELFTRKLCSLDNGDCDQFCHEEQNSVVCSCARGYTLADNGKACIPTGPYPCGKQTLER
Experimental: as §1, §2

IC50 [1] [µM]	IC50 [2] [µM]	IC50 [3] [µM]	Compound
0.0044	37	> 100	COC(=O)Nc1ccc(-c2cnc([C@@H]3C[C@H](C4CCN(S(C)(=O)=O)CC4)CN3C(=O)c3ccc(C(=N)N)cc3)[nH]2)cc1 [Example 73, methyl [4-(2-{(2S,4R)-1-(4-carbamimidoylbenzoyl)-4-[1-(methylsulfonyl)-4-piperidinyl]-2-pyrrolidinyl}-1H-imidazol-5-yl)phenyl]carbamate dihydrochloride]
0.0065	40	> 100	COC(=O)Nc1ccc(-c2[nH]c([C@@H]3C[C@H](C4CCN(S(C)(=O)=O)CC4)CN3C(=O)c3ccc(NC(=N)N)cc3)nc2Cl)cc1 [Example 79, methyl [4-(2-{(2S,4R)-1-(4-carbamimidamidobenzoyl)-4-[1-(methylsulfonyl)-4-piperidinyl]-2-pyrrolidinyl}-4-chloro-1H-imidazol-5-yl)phenyl]carbamate bis(trifluoroacetate)]
0.0054	57	> 100	COC(=O)Nc1ccc(-c2[nH]c([C@@H]3C[C@H](C4CCN(S(C)(=O)=O)CC4)CN3C(=O)N3CCN(C(=N)N)CC3)nc2Cl)cc1 [Example 88, methyl [4-(2-{(2S,4R)-1-[(4-carbamimidoyl-1-piperazinyl)carbonyl]-4-[1-(methylsulfonyl)-4-piperidinyl]-2-pyrrolidinyl}-4-chloro-1H-imidazol-5-yl)phenyl]carbamate bis(trifluoroacetate)]
0.0054	> 33	> 33	COC(=O)Nc1ccc(-c2[nH]c([C@@H]3C[C@H](C4CCN(S(C)(=O)=O)CC4)CN3C(=O)/C=C/c3cc(Cl)ccc3-n3cnnn3)nc2Cl)cc1 [Example 94, methyl [4-(4-chloro-2-{(2S,4R)-1-{(2E)-3-[5-chloro-2-(1H-tetraol-1-yl)phenyl]-2-propenoyl}-4-[1-(methylsulfonyl)-4-piperidinyl]-2-pyrrolidinyl}-1H-imidazol-5-yl)phenyl]carbamate]
0.0042	> 100	> 100	COC(=O)Nc1ccc(-c2[nH]c([C@@H]3C[C@H](C4CCN(S(C)(=O)=O)CC4)CN3C(=O)[C@H]3CC[C@H](CN)CC3)nc2Cl)cc1 [Example 96, methyl [4-(2-{(2S,4R)-1-{[4-(aminomethyl)cyclohexyl]carbonyl}-4-[1-(methylsulfonyl)-4-piperidinyl]-2-pyrrolidinyl}-4-chloro-1H-imidazol-5-yl)phenyl]carbamate bis(trifluoroacetate)]

Further lines, the molecule ahead of its results:

Compound	IC50 [1] [µM]	IC50 [2] [µM]	IC50 [3] [µM]
COC(=O)Nc1ccc(-c2[nH]c([C@@H]3C[C@H](C4CCN(S(C)(=O)=O)CC4)CN3C(=O)C3CCN(C(=N)N)CC3)nc2Cl)cc1 [Example 71, methyl [4-(2-{(2S,4R)-1-[(1-carbamimidoyl-4-piperidinyl)carbonyl]-4-[1-(methylsulfonyl)-4-piperidinyl]-2-pyrrolidinyl}-4-chloro-1H-imidazol-5-yl)phenyl]carbamate dihydrochloride]	0.0022	94	> 100
COC(=O)Nc1ccc(-c2[nH]c([C@@H]3C[C@H](C4CCN(S(C)(=O)=O)CC4)CN3C(=O)[C@H]3CC[C@H]([C@H](C)N)CC3)nc2Cl)cc1 [Example 86, methyl [4-(2-{(2S,4R)-1-({trans-4-[(1S)-1-aminoethyl]cyclohexyl}carbonyl)-4-[1-(methylsulfonyl)-4-piperidinyl]-2-pyrrolidinyl}-4-chloro-1H-imidazol-5-yl)phenyl]carbamate bis(trifluoroacetate)]	0.0099	> 100	> 100
Cn1cc(Cl)c2c(F)c(C(=O)N3C[C@@H](C4CCN(S(C)(=O)=O)CC4)C[C@H]3C(=O)Nc3ccc(C(=O)O)cc3)ccc21 [Example 93, 4-[({(2S,4R)-1-[(3-chloro-4-fluoro-1-methyl-1H-indol-5-yl)carbonyl]-4-[1-(methylsulfonyl)-4-piperidinyl]-2-pyrrolidinyl}carbonyl)amino]benzoic acid]	0.018	> 100	> 100
COC(=O)Nc1ccc(-c2cnc([C@@H]3C[C@H](N4CCN(S(C)(=O)=O)CC4)CN3C(=O)C3CCN(C(=N)N)CC3)[nH]2)cc1 [Example 98, methyl [4-(2-(2S,4S)-1-[(1-carbamimidoyl-4-piperidinyl)carbonyl]-4-[4-(methylsulfonyl)-1-piperazinyl]-2-pyrrolidinyl-1H-imidazol-5-yl)phenyl]carbamate trihydrochloride]	0.0023	> 100	> 100
COC(=O)Nc1ccc(-c2[nH]c([C@@H]3C[C@H](N4CCN(S(C)(=O)=O)CC4)CN3C(=O)C3CCN(C(=N)N)CC3)nc2Cl)cc1 [Example 99, methyl [4-(2-{(2S,4S)-1-(1-carbamimidoyl-4-piperidinyl)carbonyl]-4-[4-(methylsulfonyl)-1-piperazinyl-2-pyrrolidinyl}-4-chloro-1H-imidazol-5-yl)phenyl]carbamate trihydrochloride]	0.0012	84	> 100
